# Test results published in PubChem BioAssay (NCI).
#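 Exposure lasted 48 hours, with cells grown in 96-well plates and compounds tested at five concentrations. GI50 marks 50% less growth. TGI is the concentration that stops growth completely.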
# Experiments:
# Assay in all cases: growth of human tumour cells (NCI), 48 h
# UACC-62 melanoma = system: UACC-62 melanoma
# EKVX NSCLC = system: EKVX NSCLC
# MDA-MB-231 breast = system: MDA-MB-231 breast
# SF-295 CNS = system: SF-295 CNS
# A498 renal = system: A498 renal
# A549 NSCLC = system: A549 NSCLC
# NCI-H522 lung = system: NCI-H522 lung
# HOP-62 NSCLC = system: HOP-62 NSCLC
# HS 578T breast = system: HS 578T breast
# OVCAR-4 ovarian = system: OVCAR-4 ovarian
# SN12C renal = system: SN12C renal
# SW-620 colon = system: SW-620 colon
# NCI-H23 lung = system: NCI-H23 lung
# MCF7 breast = system: MCF7 breast
# SNB-19 CNS = system: SNB-19 CNS
# OVCAR-8 ovarian = system: OVCAR-8 ovarian
# SNB-75 CNS = system: SNB-75 CNS
# PC-3 prostate = system: PC-3 prostate
# SK-MEL-2 melanoma = system: SK-MEL-2 melanoma
# M14 melanoma = system: M14 melanoma
# DU-145 prostate = system: DU-145 prostate
# SK-MEL-28 melanoma = system: SK-MEL-28 melanoma
# SF-539 CNS = system: SF-539 CNS
# HT29 colon = system: HT29 colon
# TK-10 renal = system: TK-10 renal
# HCT-116 colon = system: HCT-116 colon
# IGROV1 ovarian = system: IGROV1 ovarian
# SK-OV-3 ovarian = system: SK-OV-3 ovarian
# HL-60(TB) leukemia = system: HL-60(TB) leukemia
# HCT-15 colon = system: HCT-15 colon
# HCC-2998 colon = system: HCC-2998 colon
# CCRF-CEM leukemia = system: CCRF-CEM leukemia
# COLO 205 colon = system: COLO 205 colon
# SF-268 CNS = system: SF-268 CNS
# UACC-257 melanoma = system: UACC-257 melanoma
# RXF 393 renal = system: RXF 393 renal
# UO-31 renal = system: UO-31 renal
# ACHN renal = system: ACHN renal
# LOX IMVI melanoma = system: LOX IMVI melanoma
# U251 CNS = system: U251 CNS
# OVCAR-5 ovarian = system: OVCAR-5 ovarian
# NCI-H226 lung = system: NCI-H226 lung
# KM12 colon = system: KM12 colon
# K-562 leukemia = system: K-562 leukemia
# BT-549 breast = system: BT-549 breast
# MOLT-4 leukemia = system: MOLT-4 leukemia
# NCI/ADR-RES ovarian = system: NCI/ADR-RES ovarian
# 786-0 renal = system: 786-0 renal
# MDA-MB-435 = system: MDA-MB-435
# OVCAR-3 ovarian = system: OVCAR-3 ovarian
# NCI-H460 lung = system: NCI-H460 lung
# MALME-3M melanoma = system: MALME-3M melanoma
# RPMI-8226 leukemia = system: RPMI-8226 leukemia
# HOP-92 NSCLC = system: HOP-92 NSCLC
# SK-MEL-5 melanoma = system: SK-MEL-5 melanoma
# SR leukemia = system: SR leukemia
structure (smiles),measurement,setting,value
COc1ccc([As]=[As]c2ccc(OC)c(NCS(=O)(=O)O)c2)cc1NCS(=O)(=O)O (configuration not stated),GI50,UACC-62 melanoma,1.86 µM
same,TGI,UACC-62 melanoma,4.6 µM
same,GI50,EKVX NSCLC,1.36 µM
same,TGI,EKVX NSCLC,7.26 µM
same,GI50,MDA-MB-231 breast,1.56 µM
same,TGI,MDA-MB-231 breast,3.4 µM
same,GI50,SF-295 CNS,3.01 µM
same,TGI,SF-295 CNS,9.48 µM
same,GI50,A498 renal,1.65 µM
same,TGI,A498 renal,3.26 µM
same,GI50,A549 NSCLC,3.04 µM
same,TGI,A549 NSCLC,9.96 µM
same,GI50,NCI-H522 lung,0.324 µM
same,TGI,NCI-H522 lung,1.53 µM
same,GI50,HOP-62 NSCLC,2.4 µM
same,TGI,HOP-62 NSCLC,5.9 µM
same,GI50,HS 578T breast,3.21 µM
same,TGI,HS 578T breast,> 100 µM
same,GI50,OVCAR-4 ovarian,1.27 µM
same,TGI,OVCAR-4 ovarian,2.6 µM
same,GI50,SN12C renal,1.54 µM
same,TGI,SN12C renal,3.34 µM
same,GI50,SW-620 colon,1.17 µM
same,TGI,SW-620 colon,3.04 µM
same,GI50,NCI-H23 lung,2.57 µM
same,TGI,NCI-H23 lung,8.62 µM
same,GI50,MCF7 breast,1.09 µM
same,TGI,MCF7 breast,3.44 µM
same,GI50,SNB-19 CNS,1.82 µM
same,TGI,SNB-19 CNS,3.68 µM
same,GI50,OVCAR-8 ovarian,2.48 µM
same,TGI,OVCAR-8 ovarian,6.84 µM
same,GI50,SNB-75 CNS,1.27 µM
same,TGI,SNB-75 CNS,2.8 µM
same,GI50,PC-3 prostate,3.14 µM
same,TGI,PC-3 prostate,11.7 µM
same,GI50,SK-MEL-2 melanoma,1.91 µM
same,TGI,SK-MEL-2 melanoma,4.54 µM
same,GI50,M14 melanoma,2.15 µM
same,TGI,M14 melanoma,5.69 µM
same,GI50,DU-145 prostate,3.56 µM
same,TGI,DU-145 prostate,13.8 µM
same,GI50,SK-MEL-28 melanoma,1.45 µM
same,TGI,SK-MEL-28 melanoma,3 µM
same,GI50,SF-539 CNS,1.39 µM
same,TGI,SF-539 CNS,3.43 µM
same,GI50,HT29 colon,2.25 µM
same,TGI,HT29 colon,5.37 µM
same,GI50,TK-10 renal,1.86 µM
same,TGI,TK-10 renal,3.55 µM
same,GI50,HCT-116 colon,1.7 µM
same,TGI,HCT-116 colon,3.2 µM
same,GI50,IGROV1 ovarian,1.19 µM
same,TGI,IGROV1 ovarian,3.4 µM
same,GI50,SK-OV-3 ovarian,10 µM
same,TGI,SK-OV-3 ovarian,21.8 µM
same,GI50,HL-60(TB) leukemia,1.51 µM
same,TGI,HL-60(TB) leukemia,11.7 µM
same,GI50,HCT-15 colon,1.47 µM
same,TGI,HCT-15 colon,3.31 µM
same,GI50,HCC-2998 colon,2.67 µM
same,TGI,HCC-2998 colon,8.8 µM
same,GI50,CCRF-CEM leukemia,0.415 µM
same,TGI,CCRF-CEM leukemia,3.14 µM
same,GI50,COLO 205 colon,1.52 µM
same,TGI,COLO 205 colon,3.46 µM
same,GI50,SF-268 CNS,1.62 µM
same,TGI,SF-268 CNS,4.12 µM
same,GI50,UACC-257 melanoma,1.62 µM
same,TGI,UACC-257 melanoma,3.37 µM
same,GI50,RXF 393 renal,1.41 µM
same,TGI,RXF 393 renal,3.09 µM
same,GI50,UO-31 renal,1.46 µM
same,TGI,UO-31 renal,3.16 µM
same,GI50,ACHN renal,1.62 µM
same,TGI,ACHN renal,3 µM
same,GI50,LOX IMVI melanoma,1.34 µM
same,TGI,LOX IMVI melanoma,4.49 µM
same,GI50,U251 CNS,0.768 µM
same,TGI,U251 CNS,2.25 µM
same,GI50,OVCAR-5 ovarian,2.02 µM
same,TGI,OVCAR-5 ovarian,4.22 µM
same,GI50,NCI-H226 lung,4.07 µM
same,TGI,NCI-H226 lung,17.3 µM
same,GI50,KM12 colon,2.98 µM
same,TGI,KM12 colon,10.5 µM
same,GI50,K-562 leukemia,0.615 µM
same,TGI,K-562 leukemia,11.1 µM
same,GI50,BT-549 breast,1.11 µM
same,TGI,BT-549 breast,2.45 µM
same,GI50,MOLT-4 leukemia,1.33 µM
same,TGI,MOLT-4 leukemia,6.18 µM
same,GI50,NCI/ADR-RES ovarian,3.49 µM
same,TGI,NCI/ADR-RES ovarian,27.1 µM
same,GI50,786-0 renal,1.63 µM
same,TGI,786-0 renal,3.51 µM
same,GI50,MDA-MB-435,2.03 µM
same,TGI,MDA-MB-435,5.26 µM
same,GI50,OVCAR-3 ovarian,1.57 µM
same,TGI,OVCAR-3 ovarian,3.06 µM
same,GI50,NCI-H460 lung,3.49 µM
same,TGI,NCI-H460 lung,12.2 µM
same,GI50,MALME-3M melanoma,1.41 µM
same,TGI,MALME-3M melanoma,3.34 µM
same,GI50,RPMI-8226 leukemia,0.926 µM
same,TGI,RPMI-8226 leukemia,5.93 µM
same,GI50,HOP-92 NSCLC,1.45 µM
same,TGI,HOP-92 NSCLC,3.24 µM
same,GI50,SK-MEL-5 melanoma,1.86 µM
same,TGI,SK-MEL-5 melanoma,4.27 µM
same,GI50,SR leukemia,0.691 µM
same,TGI,SR leukemia,4.88 µM
